Measured values: patent US20150119410A1, “BIOMARKERS OF RESPONSE TO NAE INHIBITORS” (MILLENNIUM PHARMACEUTICALS, INC., priority 2011, published 2015)

Experiments:
Format in all cases: cell-based
T84 = assay: Cell line panel 1 viability screen; conditions: Homo sapiens; T84 (intestine); 2 μM MLN4924, 72 hours; DMSO control about 1
Method: (§1) To support clinical development and identify potential biomarkers of tumor sensitivity or resistance, two large cancer cell line panels (Panel 1, N=653 (McDermott et al. (2007) PNAS 104:19936-19941); Panel 2, N=240 (O'Day et al. (2010) Fourth AACR International Conference on Molecular Diagnostics in Cancer Therapeutic Development)) were treated with MLN4924 and cell viability data (IC50, EC50, and POC—Percentage of Control) were generated.
(§2) Panel 1 (McDermott et al., supra). The cell lines were exposed to three MLN4924 concentrations (20 nM, 200 nM, and 2 μM) for 72 hours. Viability, i.e., cell number, was quantified by measuring fluorescence of a cell-permeant nucleic acid stain. Mean of triplicate values for each sample were taken and compared to DMSO control to calculate percentage of control. In the results, control or no activity value is given a value of about 1, sensitivity is indicated by a value less than 1, with 0 as death of the entire cell population and resistance indicated by a value greater than 1. A continuum of viability values was obtained for each concentration, so some values were selected as cut-offs for final determination of sensitivity or resistance. For example, median POC values of less than the median value of all POC's recorded in the panel (<0.34) indicated sensitivity, values of 0.34 to 0.75 indicated borderline sensitivity, values greater than the 3rd quartile of all POC's in the panel (>0.75) insensitivity or resistance. […] Final judgment of cell line as sensitive, insensitive or resistant was determined by its viability at 2 μM.

BxPC-3 = assay: Cell line panel 1 viability screen; conditions: BxPC-3 (pancreas)
Method: as §1, §2

COCM1 = assay: Cell line panel 1 viability screen
Method: as §1, §2

GAMG = assay: Cell line panel 1 viability screen; conditions: GAMG (central nervous system)
Method: as §1, §2

KU-19-19 = assay: Cell line panel 1 viability screen; conditions: KU-19-19 (urinary_tract)
Method: as §1, §2

HT29 = assay: Cell line panel 1 viability screen
Method: as §1, §2

SW 1463 = assay: Cell line panel 1 viability screen
Method: as §1, §2

HGC-27 = assay: Cell line panel 1 viability screen; conditions: Homo sapiens; HGC-27 (stomach); 2 μM MLN4924, 72 hours; DMSO control about 1
Method: as §1, §2

COLO-678 = assay: Cell line panel 1 viability screen; conditions: COLO-678 (large_intestine)
Method: as §1, §2

CAL-62 = assay: Cell line panel 1 viability screen; conditions: CAL-62 (thyroid)
Method: as §1, §2

HCC1806 = assay: Cell line panel 1 viability screen; conditions: HCC1806 (breast)
Method: as §1, §2

CaR-1 = assay: Cell line panel 1 viability screen; conditions: CaR-1 (large_intestine)
Method: as §1, §2

647-V = assay: Cell line panel 1 viability screen; conditions: 647-V (urinary_tract)
Method: as §1, §2

NCI-N87 = assay: Cell line panel 1 viability screen; conditions: NCI-N87 (stomach)
Method: as §1, §2

MKN1 = assay: Cell line panel 1 viability screen; conditions: MKN1 (Stomach)
Method: as §1, §2

ESS-1 = assay: Cell line panel 1 viability screen; conditions: ESS-1 (Uterus)
Method: as §1, §2

LS-174T = assay: Cell line panel 2 high-content screen; conditions: Homo sapiens, LS174T; LS-174T (large_intestine); 72 hours
Method: as §1
(§3) Panel 2 (Ricerca Biosciences, Inc., Bothell, Wash.). MLN4924 was added in half-log dilutions for 10 concentrations and treated for 72 hours. High-content cell screening by fluorescence microscopy included image analysis to generate several types of data. Results included EC50 values (after measurement of cell numbers, the EC50 concentration was calculated from the inflection point of a curve of percent of control (POC) against log of MLN4924 concentration), IC50 values (from the POC-log MLN4924 plot, IC50 is the concentration at 50% maximal possible response), apoptosis (measurement of activation of caspase 3 plotted against log of MLN4924 concentration, determined as the concentration for >5 fold induction), and mitotic activity (determined by measuring the fold increase of phospho-histone 3). A comparison of EC50 to IC50 (FIG. 3) allowed assignment of cell lines to sensitive, insensitive or resistant. Final identification of a cell line as sensitive or resistant was based on the EC50 values. The cutoff for sensitivity is a median EC50 of less than the median value of all POC's recorded in the panel (<0.36), borderline sensitivity was associated with median EC50 of 0.36 to 1.67 and insensitive or resistant cell lines were identified by EC50 greater than the 3rd quartile of all POC's in the panel (>1.67).

MDA-MB-231 = assay: Cell line panel 2 high-content screen; conditions: Homo sapiens; MDA-MB-231 (breast); 72 hours
Method: as §1, §3

CFPAC-1 = assay: Cell line panel 2 high-content screen; conditions: Homo sapiens; CFPAC-1 (pancreas); 72 hours
Method: as §1, §3

[1] = Homo sapiens, 2 μM MLN4924, 72 hours, DMSO control about 1

For `NS(=O)(=O)OC[C@@H]1C[C@@H](n2ccc3c(N[C@H]4CCc5ccccc54)ncnc32)C[C@@H]1O` [MLN4924, ((1S,2S,4R)-4-{4-[(1S)-2,3-dihydro-1H-inden-1-ylamino]-7H-pyrrolo[2,3-d]pyrimidin-7-yl}-2-hydroxycyclopentyl)methyl sulphamate], the viability at 2 µM (T84) was 57.8%, the Phenotype (BxPC-3; SMAD4 mutant) was “insensitive (values of 0.34 to 0.75 indicated borderline sensitivity)” and the viability at 2 µM (BxPC-3; [1]) was 41.9%. For the same molecule, the viability at 2 µM (COCM1; COCM1 / CoCM-1 (intestine), 2 μM MLN4924, 72 hours, DMSO control about 1) was 114%, the Phenotype (COCM1; CoCM-1 (large_intestine), SMAD4 mutant) was “resistant (values greater than the 3rd quartile of all POC's in the panel (>0.75) insensitivity or resistance)” and the Phenotype (GAMG; SMAD4 mutant) was “sensitive (median POC values of less than the median value of all POC's recorded in the panel (<0.34) indicated sensitivity)”. The viability at 2 µM (GAMG; [1]) was 7.21%, the viability at 2 µM (KU-19-19; [1]) was 5.8% and the Phenotype (KU-19-19; KDM6A mutant) was “sensitive (median POC values of less than the median value of all POC's recorded in the panel (<0.34) indicated sensitivity)”. For the same molecule, the Phenotype (HT29; HT-29 (large_intestine), SMAD4 mutant) was “insensitive (values of 0.34 to 0.75 indicated borderline sensitivity)”, the viability at 2 µM (HT29; Homo sapiens, HT29 / HT-29 (intestine), 2 μM MLN4924, 72 hours, DMSO control about 1) was 43.8% and the viability at 2 µM (SW 1463; Homo sapiens, SW 1463 / SW1463 (intestine), 2 μM MLN4924, 72 hours, DMSO control about 1) was 89.6%. The Phenotype (SW 1463; SW1463 (Intestine), FBXW7 mutant) was “resistant (values greater than the 3rd quartile of all POC's in the panel (>0.75) insensitivity or resistance)”, the viability at 2 µM (HGC-27) was 12.9% and the Phenotype (COLO-678; SMAD4 mutant) was “resistant (values greater than the 3rd quartile of all POC's in the panel (>0.75) insensitivity or resistance)”. The viability at 2 µM (COLO-678; [1]) was 81.4%, the Phenotype (CAL-62; NF2 mutant) was “sensitive (median POC values of less than the median value of all POC's recorded in the panel (<0.34) indicated sensitivity)” and the viability at 2 µM (CAL-62; [1]) was 6.76%. For the same molecule, the Phenotype (HCC1806; KDM6A mutant) was “sensitive (median POC values of less than the median value of all POC's recorded in the panel (<0.34) indicated sensitivity)”, the viability at 2 µM (HCC1806; [1]) was 1.16% and the Phenotype (CaR-1; NF2 mutant) was “sensitive (median POC values of less than the median value of all POC's recorded in the panel (<0.34) indicated sensitivity)”. The viability at 2 µM (CaR-1; [1]) was 32.4%, the Phenotype (647-V; NF2 mutant) was “sensitive (median POC values of less than the median value of all POC's recorded in the panel (<0.34) indicated sensitivity)” and the viability at 2 µM (647-V; [1]) was 3.8%. The viability at 2 µM (NCI-N87; [1]) was 14.6%, the Phenotype (NCI-N87; SMAD4 mutant) was “sensitive (median POC values of less than the median value of all POC's recorded in the panel (<0.34) indicated sensitivity)” and the viability at 2 µM (MKN1; Homo sapiens, MKN-1, 2 μM MLN4924, 72 hours, DMSO control about 1) was 46.3%. The Phenotype (MKN1; FBXW7 mutant) was “insensitive (values of 0.34 to 0.75 indicated borderline sensitivity)”, the Phenotype (ESS-1; FBXW7 mutant) was “sensitive (median POC values of less than the median value of all POC's recorded in the panel (<0.34) indicated sensitivity)” and the viability at 2 µM (ESS-1; [1]) was 5.29%. It also gave an EC50 (LS-174T) of 137 nM, an EC50 (MDA-MB-231) of 871 nM and an EC50 (CFPAC-1) of 6370 nM.
